Source: patent US20040086901A1, “Database for analyzing gene function and method of analyzing gene function by dspa” (priority 2000, published 2004)

Legend:
Type in all cases: cell-based, mouse
[1] = system: NIH3T3 cells overexpressing Ha-ras; experiment: MTT cell viability, drug sensitivity of Ha-ras overexpressing cells vs parental line; conditions: Ha-ras high-expressing cells / parental cell line, 3 to 4 days
Procedure: (§1) With regard to the function-known genes, the genes shown in the left column of Table 2 were used. With regard to the drugs, those shown in Table 1 were dissolved in DMSO to an extent of 100-fold of the maximum concentration for the search of the drugs and used. With regard to the cells, incubated NIH3T3 or ras-NIH3T3 cells were used.
(§2) Full-length cDNA of each function-known genes was incorporated into an expression vector (pRc-CMV, etc.) and transfected into NIH3T3 cells by a common method. Transformed cells were isolated using the resistance to G-418 as an index and the expression of the transfected gene in each cell was investigated by Western blotting method to select a highly expressing line.
(§3) Cell viabilities were measured according to the following procedures.
(§4) 1) From the 2nd to the 11th rows of a 96-well plate were filled with DMEM (50 μl). The 12th row was filled with 100 μl of DMEM.
(§5) 2) The 1st row was filled with 98 μl of DMEM.
(§6) 3) Drugs (2 μl each) were added into the 1st row.
(§7) 4) Continuous double-dilution was conducted from the 1st to the 9th rows. Fifty μl were taken out from the 9th row and discarded. The plate was preserved in a CO2 incubator.
(§8) 5) Cells (each high-expressing cells and the parental cell line) were detached from the medium using a trypsin solution, suspended in 10% CS-DMEM and transferred to a test tube and cell numbers (cell/ml) were counted.
(§9) 6) The cells were diluted to a concentration of 1×10^5 cells/ml, and 50 μl of the cell suspension were added to the 1st to the 11th rows of the plate followed by gently stirring.
(§10) 7) The plate was transferred to the CO2 incubator and incubated for 3 to 4 days.
(§11) 8) MTT (5 mg/ml in PBS) (10 μl) was added to the 1st to the 12th rows of the plate and incubated in the CO2 incubator at 37° C. for 4 hours.
(§12) 9) A reaction stop solution (0.04N HCl in isopropanol) (150 μl) was added followed by mixing well and being allowed to stand at room temperature for about 2 hours.
(§13) 10) Coloration of formazan which was a metabolite of the MTT dye was measured using a microplate reader. The measurement wavelength was 574 nm and the reference wavelength was 655 nm. The 10th and the 11th rows of the plate were 100% controls and the 12th row was a 0% control.
(§14) As an index for the sensitivity of highly gene-expressing cells and the parental cell line to various drugs, each of the IC40 values thereof was specified and ratios of the IC40 values were calculated. […] After that, logarithmic values of ratios of IC40 values were calculated from each gene.

[2] = system: NIH3T3 cells overexpressing v-src; experiment: MTT cell viability, v-src overexpressing cells vs parental line; conditions: v-src high-expressing cells / parental cell line, 3 to 4 days
Procedure: as §1, §2, §3, §4, §5, §6, §7, §8, §9, §10, §11, §12, §13
(§15) As an index for the sensitivity of highly gene-expressing cells and the parental cell line to various drugs, each of the IC40 values thereof was specified and ratios of the IC40 values were calculated. FIG. 2 and FIG. 3 are the examples where ratios of IC40 values were calculated from a curve showing the dependency on the concentration of the chemical versus the viability. After that, logarithmic values of ratios of IC40 values were calculated from each gene.

[3] = system: NIH3T3 cells overexpressing TK; experiment: MTT cell viability, TK overexpressing cells vs parental line; conditions: TK high-expressing cells / parental cell line, 3 to 4 days
Procedure: as §1, §2, §3, §4, §5, §6, §7, §8, §9, §10, §11, §12, §13, §15

[4] = system: NIH3T3 cells overexpressing m-calpain; experiment: MTT cell viability, m-calpain overexpressing cells vs parental line; conditions: m-calpain high-expressing cells / parental cell line, 3 to 4 days
Procedure: as §1, §2, §3, §4, §5, §6, §7, §8, §9, §10, §11, §12, §13, §14

[5] = system: NIH3T3 cells overexpressing CP-antisense; experiment: MTT cell viability, CP-antisense cells vs parental line; conditions: 3 to 4 days
Procedure: as §1, §2, §3, §4, §5, §6, §7, §8, §9, §10, §11, §12, §13, §15

[6] = system: NIH3T3 cells overexpressing DAN; experiment: MTT cell viability, DAN overexpressing cells vs parental line; conditions: DAN high-expressing cells / parental cell line, 3 to 4 days
Procedure: as §1, §2, §3, §4, §5, §6, §7, §8, §9, §10, §11, §12, §13, §15

[7] = system: NIH3T3 cells overexpressing cystatin alpha; experiment: MTT cell viability, cystatin alpha overexpressing cells vs parental line; conditions: cystatin alpha high-expressing cells / parental cell line, 3 to 4 days
Procedure: as §1, §2, §3, §4, §5, §6, §7, §8, §9, §10, §11, §12, §13, §15

[8] = system: NIH3T3 cells overexpressing RhoA-DN; experiment: MTT cell viability, RhoA-DN overexpressing cells vs parental line; conditions: RhoA-DN high-expressing cells / parental cell line, 3 to 4 days
Procedure: as §1, §2, §3, §4, §5, §6, §7, §8, §9, §10, §11, §12, §13, §14

[9] = system: NIH3T3 cells overexpressing PDGF-R; experiment: MTT cell viability, PDGF-R overexpressing cells vs parental line; conditions: PDGF-R high-expressing cells / parental cell line, 3 to 4 days
Procedure: as §1, §2, §3, §4, §5, §6, §7, §8, §9, §10, §11, §12, §13, §15

[10] = system: NIH3T3 cells overexpressing PDGF-R-Del; experiment: MTT cell viability, PDGF-R-Del overexpressing cells vs parental line; conditions: PDGF-R-Del high-expressing cells / parental cell line, 3 to 4 days
Procedure: as §1, §2, §3, §4, §5, §6, §7, §8, §9, §10, §11, §12, §13, §15

[11] = system: NIH3T3 cells overexpressing PKCalpha-KN; experiment: MTT cell viability, PKCalpha-KN overexpressing cells vs parental line; conditions: 3 to 4 days
Procedure: as §1, §2, §3, §4, §5, §6, §7, §8, §9, §10, §11, §12, §13, §14

[12] = system: NIH3T3 cells overexpressing PKCepsilon-KN; experiment: MTT cell viability, PKCepsilon-KN overexpressing cells vs parental line; conditions: 3 to 4 days
Procedure: as §1, §2, §3, §4, §5, §6, §7, §8, §9, §10, §11, §12, §13, §14

[13] = system: NIH3T3 cells overexpressing JNK-DN; experiment: MTT cell viability, JNK-DN overexpressing cells vs parental line; conditions: JNK-DN high-expressing cells / parental cell line, 3 to 4 days
Procedure: as §1, §2, §3, §4, §5, §6, §7, §8, §9, §10, §11, §12, §13, §15

[14] = system: NIH3T3 cells overexpressing p38-DN; experiment: MTT cell viability, p38-DN overexpressing cells vs parental line; conditions: p38-DN high-expressing cells / parental cell line, 3 to 4 days
Procedure: as §1, §2, §3, §4, §5, §6, §7, §8, §9, §10, §11, §12, §13, §14

[15] = system: NIH3T3 cells overexpressing HSP4O; experiment: MTT cell viability, HSP4O overexpressing cells vs parental line; conditions: HSP4O high-expressing cells / parental cell line, 3 to 4 days
Procedure: as §1, §2, §3, §4, §5, §6, §7, §8, §9, §10, §11, §12, §13, §15

[16] = system: NIH3T3 cells overexpressing HNF1; experiment: MTT cell viability, HNF1 overexpressing cells vs parental line; conditions: HNF1 high-expressing cells / parental cell line, 3 to 4 days
Procedure: as §1, §2, §3, §4, §5, §6, §7, §8, §9, §10, §11, §12, §13, §14

[17] = system: NIH3T3 cells overexpressing coup; experiment: MTT cell viability, coup overexpressing cells vs parental line; conditions: coup high-expressing cells / parental cell line, 3 to 4 days
Procedure: as §1, §2, §3, §4, §5, §6, §7, §8, §9, §10, §11, §12, §13, §15

[18] = system: NIH3T3 cells overexpressing C/EBPa; experiment: MTT cell viability, C/EBPa overexpressing cells vs parental line; conditions: C/EBPa high-expressing cells / parental cell line, 3 to 4 days
Procedure: as §1, §2, §3, §4, §5, §6, §7, §8, §9, §10, §11, §12, §13, §14

[19] = system: NIH3T3 cells overexpressing C/EBPb; experiment: MTT cell viability, C/EBPb overexpressing cells vs parental line; conditions: C/EBPb high-expressing cells / parental cell line, 3 to 4 days
Procedure: as §1, §2, §3, §4, §5, §6, §7, §8, §9, §10, §11, §12, §13, §14

[20] = PKCalpha-KN (first of two lines) high-expressing cells / parental cell line
[21] = PKCalpha-KN (second of two lines) high-expressing cells / parental cell line
[22] = PKCepsilon-KN (first of two lines) high-expressing cells / parental cell line
[23] = PKCepsilon-KN (second of two lines) high-expressing cells / parental cell line

Compound	logarithmic value of ratio of IC40 values [1]	logarithmic value of ratio of IC40 values [2]	logarithmic value of ratio of IC40 values [3]	logarithmic value of ratio of IC40 values [4]	logarithmic value of ratio of IC40 values [5]	logarithmic value of ratio of IC40 values [6]	logarithmic value of ratio of IC40 values [7]	logarithmic value of ratio of IC40 values [8]	logarithmic value of ratio of IC40 values [9]	logarithmic value of ratio of IC40 values [10]	logarithmic value of ratio of IC40 values [11, 20]	logarithmic value of ratio of IC40 values [11, 21]	logarithmic value of ratio of IC40 values [12, 22]	logarithmic value of ratio of IC40 values [12, 23]	logarithmic value of ratio of IC40 values [13]	logarithmic value of ratio of IC40 values [14]	logarithmic value of ratio of IC40 values [15]	logarithmic value of ratio of IC40 values [16]	logarithmic value of ratio of IC40 values [17]	logarithmic value of ratio of IC40 values [18]	further results
O=c1c(-c2ccc(O)cc2)coc2cc(O)cc(O)c12 [Genistein, genistein]	−0.35	−0.60	0.08	0.18	0.00	0.20	0.28	0.00	0.32	0.33	0.16	0.24	0.00	0.19	−0.10	0.00	0.00	0.234	0.44	−0.43	logarithmic value of ratio of IC40 values [19]: 0.19
COc1ccc2c(c1)CC[C@@H]1[C@@H]2CC[C@]2(C)[C@@H](NCCCCCCN3C(=O)C=CC3=O)CC[C@@H]12 [U73122]	−0.19	−0.59	0.00	−0.14	−0.10	0.36	0.04	−0.35	−0.11	0.00	−0.33	−0.97	−0.21	−0.38	−0.07	0.00	−0.20	0.07	0.00	0.00	logarithmic value of ratio of IC40 values [19]: 0.10
C/C=C(/C)C(=O)O[C@H]1C(C)=C2[C@H]([C@@H]1OC(=O)CCCCCCC)[C@@](C)(OC(C)=O)C[C@H](OC(=O)CCC)[C@@]1(O)[C@H]2OC(=O)[C@@]1(C)O [Thapsigargin, thapsigargin]	0.00	0.32	0.06	0.05	−0.30	0.18	0.04	0.06	0.29	0.24	0.10	0.12	0.09	0.20	0.24	0.02	0.18	0.16	−0.30	−0.09	logarithmic value of ratio of IC40 values [19]: 0.29
C=C1[C@@H](O)[C@@H]2O[C@]3(CC[C@H](/C=C/[C@@H](C)[C@@H]4CC(C)=C[C@@]5(O[C@H](C[C@@](C)(O)C(=O)O)CC[C@H]5O)O4)O3)CC[C@H]2O[C@@H]1[C@@H](O)C[C@H](C)[C@H]1O[C@@]2(CCCCO2)CC[C@H]1C [OA, okadaic acid]	0.11	0.18	0.00	−0.08	0.13	0.04	0.08	0.00	0.16	0.21	0.09	0.00	0.00	0.00	−0.07	0.12	−0.02	0	0.00	0.12	logarithmic value of ratio of IC40 values [19]: 0.21
